# Source: patent publication US9315505B2, “Heterocyclic compounds and uses thereof” (INTELLIKINE LLC, priority 2009, dated 2016)
# Columns and labels:
# Assay type in all cases: biochemical
# PI3K δ = target: T1, PI3K δ (Homo sapiens, UniProt O00329); assay: In vitro IC50, PI3K δ (p110δ/p85α inhibition assay); conditions: in vitro kinase assay; read-out: IC50(nM) PI3K δ
# T1 construct: purchased Upstate
# Procedure: (§1) IC50 values are measured using either a standard TLC assay for lipid kinase activity (described below) or a high-throughput membrane capture assay. Kinase reactions are performed by preparing a reaction mixture containing kinase, inhibitor (2% DMSO final concentration), buffer (25 mM HEPES, pH 7.4, 10 mM MgCl2), and freshly sonicated phosphatidylinositol (100 μg/ml). Reactions are initiated by the addition of ATP containing 10 μCi of γ-32P-ATP to a final concentration 10 or 100 μM and allowed to proceed for 5 minutes at room temperature. For TLC analysis, reactions are then terminated by the addition of 105 μl 1N HCl followed by 160 μl CHCl3:MeOH (1:1). The biphasic mixture is vortexed, briefly centrifuged, and the organic phase is transferred to a new tube using a gel loading pipette tip precoated with CHCl3. This extract is spotted on TLC plates and developed for 3-4 hours in a 65:35 solution of n-propanol:1M acetic acid. The TLC plates are then dried, exposed to a phosphorimager screen (Storm, Amersham), and quantitated.
# (§2) Other commercial kits or systems for assaying PI3-K activities are available. The commercially available kits or systems can be used to screen for inhibitors and/or agonists of PI3-Ks including but not limited to PI 3-Kinase α, β, δ, and γ. An exemplary system is PI 3-Kinase (human) HTRF™ Assay from Upstate. […] Briefly, the assay is a time resolved FRET assay that indirectly measures PIP3 product formed by the activity of a PI3-K. The kinase reaction is performed in a microtitre plate (e.g., a 384 well microtitre plate). The total reaction volume is approximately 20 ul per well. In the first step, each well receives 2 ul of test compound in 20% dimethylsulphoxide resulting in a 2% DMSO final concentration. Next, approximately 14.5 ul of a kinase/PIP2 mixture (diluted in 1× reaction buffer) is added per well for a final concentration of 0.25-0.3 ug/ml kinase and 10 uM PIP2. The plate is sealed and incubated for 15 minutes at room temperature. To start the reaction, 3.5 ul of ATP (diluted in 1× reaction buffer) is added per well for a final concentration of 10 uM ATP. The plate is sealed and incubated for 1 hour at room temperature. The reaction is stopped by adding 5 ul of Stop Solution per well and then 5 ul of Detection Mix is added per well. The plate is sealed, incubated for 1 hour at room temperature, and then read on an appropriate plate reader. Data is analyzed and IC50s are generated using GraphPad Prism 5.
# PI3K α = target: T2, PI3K α (Homo sapiens, UniProt P42336); assay: In vitro IC50, PI3K α (p110α/p85α inhibition assay); conditions: in vitro kinase assay; read-out: IC50(nM) PI3K α
# T2 construct: purchased Upstate
# T2 sequence (P42336 whole entry): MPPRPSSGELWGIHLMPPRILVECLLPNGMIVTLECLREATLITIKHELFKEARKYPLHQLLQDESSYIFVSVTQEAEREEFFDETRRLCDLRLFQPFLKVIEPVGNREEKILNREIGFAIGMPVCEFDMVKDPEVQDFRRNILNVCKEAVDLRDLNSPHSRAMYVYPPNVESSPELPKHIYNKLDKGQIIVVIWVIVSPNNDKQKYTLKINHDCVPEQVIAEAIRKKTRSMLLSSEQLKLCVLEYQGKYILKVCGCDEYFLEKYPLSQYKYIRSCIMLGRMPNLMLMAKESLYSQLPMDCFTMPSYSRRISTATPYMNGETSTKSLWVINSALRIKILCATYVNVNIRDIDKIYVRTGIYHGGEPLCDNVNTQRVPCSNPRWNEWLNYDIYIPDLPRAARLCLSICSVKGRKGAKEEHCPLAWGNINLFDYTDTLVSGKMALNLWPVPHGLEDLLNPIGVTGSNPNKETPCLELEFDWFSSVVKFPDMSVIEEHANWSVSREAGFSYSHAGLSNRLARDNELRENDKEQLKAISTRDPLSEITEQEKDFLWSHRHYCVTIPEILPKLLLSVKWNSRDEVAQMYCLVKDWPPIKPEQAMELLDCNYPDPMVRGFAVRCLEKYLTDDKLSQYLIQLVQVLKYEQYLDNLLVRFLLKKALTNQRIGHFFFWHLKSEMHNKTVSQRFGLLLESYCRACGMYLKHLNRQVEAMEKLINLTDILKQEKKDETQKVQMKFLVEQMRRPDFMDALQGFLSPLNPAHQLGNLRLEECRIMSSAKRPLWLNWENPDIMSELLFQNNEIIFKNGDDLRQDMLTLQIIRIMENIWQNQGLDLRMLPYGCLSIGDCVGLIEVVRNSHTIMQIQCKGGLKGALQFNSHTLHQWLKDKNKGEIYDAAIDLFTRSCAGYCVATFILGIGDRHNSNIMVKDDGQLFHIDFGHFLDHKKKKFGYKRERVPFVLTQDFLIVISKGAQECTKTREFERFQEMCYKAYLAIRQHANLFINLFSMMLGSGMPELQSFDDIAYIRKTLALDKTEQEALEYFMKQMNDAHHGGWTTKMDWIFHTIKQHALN
# T2 sequence (P27986 whole entry partner): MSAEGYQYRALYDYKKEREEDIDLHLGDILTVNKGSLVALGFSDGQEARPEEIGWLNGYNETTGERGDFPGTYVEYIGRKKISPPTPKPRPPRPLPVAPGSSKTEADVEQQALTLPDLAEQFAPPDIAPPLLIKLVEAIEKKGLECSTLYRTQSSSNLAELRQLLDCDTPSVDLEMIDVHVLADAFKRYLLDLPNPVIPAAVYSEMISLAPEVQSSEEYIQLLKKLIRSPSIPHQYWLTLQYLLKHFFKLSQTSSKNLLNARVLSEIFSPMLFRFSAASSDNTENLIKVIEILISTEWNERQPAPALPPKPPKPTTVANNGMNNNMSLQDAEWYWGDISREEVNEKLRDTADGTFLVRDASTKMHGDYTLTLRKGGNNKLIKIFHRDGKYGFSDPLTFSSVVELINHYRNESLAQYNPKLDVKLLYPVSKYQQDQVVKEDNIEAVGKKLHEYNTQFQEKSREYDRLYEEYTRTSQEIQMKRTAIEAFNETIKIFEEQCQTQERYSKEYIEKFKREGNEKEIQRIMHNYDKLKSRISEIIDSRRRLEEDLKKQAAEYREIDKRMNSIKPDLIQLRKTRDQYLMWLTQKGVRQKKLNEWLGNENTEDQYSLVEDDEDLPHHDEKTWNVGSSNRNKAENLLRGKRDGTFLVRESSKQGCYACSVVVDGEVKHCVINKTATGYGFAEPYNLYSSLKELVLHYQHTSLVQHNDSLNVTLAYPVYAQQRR
# Procedure: as §1, §2
# PI3K γ = target: T3, PI3K γ (Homo sapiens, UniProt P48736); assay: In vitro IC50, PI3K γ (p110γ inhibition assay); conditions: in vitro kinase assay
# T3 construct: purchased Sigma
# T3 sequence (P48736 whole entry): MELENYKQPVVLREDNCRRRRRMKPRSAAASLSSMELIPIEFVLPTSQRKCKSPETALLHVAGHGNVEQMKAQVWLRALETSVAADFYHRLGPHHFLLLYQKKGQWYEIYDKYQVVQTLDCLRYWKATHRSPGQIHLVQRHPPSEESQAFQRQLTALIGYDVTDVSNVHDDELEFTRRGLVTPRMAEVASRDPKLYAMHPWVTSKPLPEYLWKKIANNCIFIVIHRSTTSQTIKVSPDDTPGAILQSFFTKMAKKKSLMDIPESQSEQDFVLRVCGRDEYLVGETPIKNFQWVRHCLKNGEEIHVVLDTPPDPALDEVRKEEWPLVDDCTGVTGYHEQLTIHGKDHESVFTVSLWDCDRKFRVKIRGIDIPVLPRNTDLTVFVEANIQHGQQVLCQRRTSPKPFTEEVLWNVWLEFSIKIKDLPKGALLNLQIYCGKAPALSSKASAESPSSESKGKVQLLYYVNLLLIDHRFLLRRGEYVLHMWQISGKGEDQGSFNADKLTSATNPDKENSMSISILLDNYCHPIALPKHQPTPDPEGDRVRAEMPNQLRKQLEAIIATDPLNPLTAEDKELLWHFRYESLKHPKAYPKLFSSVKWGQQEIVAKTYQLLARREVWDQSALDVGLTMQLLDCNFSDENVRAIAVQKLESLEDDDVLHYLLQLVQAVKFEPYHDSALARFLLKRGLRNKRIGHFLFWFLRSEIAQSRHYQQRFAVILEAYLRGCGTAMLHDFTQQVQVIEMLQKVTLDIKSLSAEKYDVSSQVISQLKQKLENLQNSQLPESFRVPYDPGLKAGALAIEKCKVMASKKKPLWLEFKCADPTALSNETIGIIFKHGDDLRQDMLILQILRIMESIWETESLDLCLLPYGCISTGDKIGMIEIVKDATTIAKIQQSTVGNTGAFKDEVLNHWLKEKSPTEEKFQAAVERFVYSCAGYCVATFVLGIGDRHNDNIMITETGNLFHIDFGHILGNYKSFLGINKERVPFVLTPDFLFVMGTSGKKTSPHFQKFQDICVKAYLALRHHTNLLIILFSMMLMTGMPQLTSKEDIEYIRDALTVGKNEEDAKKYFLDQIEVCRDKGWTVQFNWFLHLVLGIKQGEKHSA
# Procedure: as §1, with “Class I PI3-Ks can be either purchased (p110α/p85α, p110β/p85α, p110δ/p85α from Upstate, and p110γ from Sigma) or expressed as previously described (Knight et al., 2004). IC50” for “IC50”, “quantitated. For each compound, kinase activity is measured at 10-12 inhibitor concentrations representing two-fold dilutions from the highest concentration tested (typically, 200 μM).” for “quantitated.”
# as §2
# T1 sequence (O00329 whole entry): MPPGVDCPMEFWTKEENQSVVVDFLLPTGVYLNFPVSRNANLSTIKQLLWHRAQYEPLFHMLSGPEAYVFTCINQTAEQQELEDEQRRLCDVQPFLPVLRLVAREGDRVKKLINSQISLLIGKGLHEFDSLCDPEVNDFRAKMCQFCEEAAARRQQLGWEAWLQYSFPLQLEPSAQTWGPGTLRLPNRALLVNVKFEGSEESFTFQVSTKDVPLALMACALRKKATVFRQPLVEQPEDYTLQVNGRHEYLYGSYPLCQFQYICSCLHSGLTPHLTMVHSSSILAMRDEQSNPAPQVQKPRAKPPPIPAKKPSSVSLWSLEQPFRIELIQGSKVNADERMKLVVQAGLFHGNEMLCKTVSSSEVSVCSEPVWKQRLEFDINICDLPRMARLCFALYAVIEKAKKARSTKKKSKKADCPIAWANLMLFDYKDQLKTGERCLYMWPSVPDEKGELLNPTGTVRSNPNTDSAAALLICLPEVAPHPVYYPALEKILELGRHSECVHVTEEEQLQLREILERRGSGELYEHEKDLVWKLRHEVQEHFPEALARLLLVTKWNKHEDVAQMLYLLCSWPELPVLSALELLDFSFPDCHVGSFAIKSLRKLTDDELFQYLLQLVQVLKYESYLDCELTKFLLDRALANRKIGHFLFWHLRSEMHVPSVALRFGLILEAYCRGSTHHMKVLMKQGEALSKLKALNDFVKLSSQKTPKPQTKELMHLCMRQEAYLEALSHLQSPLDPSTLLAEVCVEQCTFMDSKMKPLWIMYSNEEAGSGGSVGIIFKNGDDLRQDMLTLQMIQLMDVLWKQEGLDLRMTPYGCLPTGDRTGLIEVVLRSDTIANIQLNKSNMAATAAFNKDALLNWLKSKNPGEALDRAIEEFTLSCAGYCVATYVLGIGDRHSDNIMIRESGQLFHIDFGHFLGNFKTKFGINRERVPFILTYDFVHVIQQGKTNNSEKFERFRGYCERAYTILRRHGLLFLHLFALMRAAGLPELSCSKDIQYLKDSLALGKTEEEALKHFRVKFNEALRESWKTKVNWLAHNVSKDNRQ
# T1 sequence (P27986 whole entry partner): as the sequence (P27986 whole entry partner) above
IC50 (PI3K δ) [nM],IC50 (PI3K α) [nM],IC50 (PI3K γ) [nM],SMILES
< 10000,> 10000,> 10000,C[C@H](Nc1ncnc2[nH]cnc12)c1nc(N2CCOCC2)c2c(Cl)cccc2n1 [Compound 93]
< 100,> 10000,< 1000,C[C@H](Nc1ncnc2[nH]cnc12)c1cc2cccc(Cl)c2c(-c2cccnc2)n1 [Compound 82]
< 10000,–,–,Cc1cccc2cc(C(C)Nc3ncnc4[nH]cnc34)nc(OC(C)C)c12 (stereo not drawn) [Compound 32]
< 100,< 10000,< 1000,C[C@H](Nc1ncnc2[nH]cnc12)c1cc2cccc(Cl)c2c(N2CCN(S(C)(=O)=O)CC2)n1 [Compound 64]
< 1000,> 10000,> 10000,CC(Nc1ncnc2[nH]cnc12)c1cc2ccccc2c(OC2CCN(S(C)(=O)=O)CC2)n1 (stereo not drawn) [Compound 53]
< 10000,> 10000,> 10000,CCN(Cc1cc2cccc(C)c2c(OC2CCN(C(C)C)CC2)n1)c1ncnc2[nH]cnc12 [Compound 11]
< 10000,–,–,CC(Nc1ncnc2[nH]cnc12)c1cc2ccccc2c(OC2CCNCC2)n1 (stereo not drawn) [Compound 22]
< 1000,> 10000,< 10000,C[C@H](Nc1ncnc2[nH]cnc12)c1cc2ccccc2c(-c2cccnc2)n1 [Compound 76]
< 10000,–,–,Cc1cccc2cc(C(Nc3ncnc4[nH]cnc34)c3ccccc3)ncc12 (stereo not drawn) [Compound 33]
< 1000,> 10000,> 10000,CC(=O)N1CCN(c2nc([C@H](C)Nc3ncnc4[nH]cnc34)cc3cccc(Cl)c23)CC1 [Compound 69]
< 100,> 10000,< 10000,C[C@H](Nc1ncnc2[nH]cnc12)c1cc2cccc(Cl)c2c(OCCN2CCN(S(C)(=O)=O)CC2)n1 [Compound 74]
< 1000,–,> 10000,Cc1cccc2cc(C(C)Nc3ncnc4[nH]cnc34)nc(OC3CCOCC3)c12 (stereo not drawn) [Compound 40]
< 100,> 10000,> 10000,C[C@H](Nc1ncnc2[nH]cnc12)c1cc2cccc(Cl)c2c(OCC2CCN(S(C)(=O)=O)CC2)n1 [Compound 75]
< 100,< 1000,< 100,C[C@H](Nc1ncnc2[nH]cnc12)c1cc2cccc(Cl)c2c(N2CCN(S(C)(=O)=O)C[C@@H]2C)n1 [Compound 85]
< 10000,–,–,Cc1cccc2cc(Cn3nc(-c4ccc5oc(N)nc5c4)c4c(N)ncnc43)nc(Oc3ccccc3)c12 [Compound 34]
< 100,< 10000,–,Cc1cccc2cc(Cn3nc(-c4cn[nH]c4)c4c(N)ncnc43)nc(N3CCN(C)CC3)c12 [Compound 18]
< 1000,> 10000,> 10000,Cc1cccc2cc(CN(C)c3ncnc4[nH]cnc34)nc(OC3CCN(C(C)C)CC3)c12 [Compound 12]
< 10000,–,–,Cc1cccc2cc(Cn3nc(-c4cn[nH]c4)c4c(N)ncnc43)nc(OC(C)C)c12 [Compound 30]
< 100,–,> 10000,Cc1cccc2cc(C(C)Nc3ncnc4[nH]cnc34)nc(N3CCN(C)CC3)c12 (stereo not drawn) [Compound 19]
< 100,> 10000,> 10000,Cc1cccc2cc(CNc3ncnc4[nH]cnc34)nc(OC3CCN(C(C)C)CC3)c12 [Compound 10]
< 100,< 10000,< 10000,C[C@H](Nc1ncnc2[nH]cnc12)c1cc2cccc(Cl)c2c(CCN2CCCC2)n1 [Compound 90]
< 1000,> 10000,> 10000,Cc1cccc2cc(C(C)Nc3ncnc4[nH]cnc34)nc(OC3CCNCC3)c12 (stereo not drawn) [Compound 14]

IC50 (PI3K δ) [nM],IC50 (PI3K α) [nM],IC50 (PI3K γ) [nM],SMILES
< 100,> 10000,< 1000,CC(=O)N1CCC(Oc2nc(C(C)Nc3ncnc4[nH]cnc34)cc3cccc(C)c23)CC1 (stereo not drawn) [Compound 47]
< 10000,> 10000,> 10000,Cc1cccc2cc([C@@H](C)Nc3ncnc4[nH]cnc34)nc(OC3CCN(S(C)(=O)=O)CC3)c12 [Compound 87]
< 1000,> 10000,< 10000,CC(=O)N1CCC(Nc2nc(C(C)Nc3ncnc4[nH]cnc34)cc3cccc(C)c23)CC1 (stereo not drawn) [Compound 49]
< 1000,> 10000,< 1000,CC(=O)N1CCN(c2nc([C@H](C)Nc3ncnc4[nH]cnc34)nc3cccc(Cl)c23)CC1 [Compound 96]
< 100,> 10000,< 10000,CC(=O)N1CCN(c2nc(Cn3nc(-c4cn[nH]c4)c4c(N)ncnc43)cc3cccc(Cl)c23)CC1 [Compound 70]
< 1000,–,> 10000,Cc1cccc2cc(C(C)Nc3ncnc4[nH]cnc34)nc(NC3CCN(C)CC3)c12 (stereo not drawn) [Compound 41]
< 1000,> 10000,< 10000,C[C@H](Nc1ncnc2[nH]cnc12)c1nc(N2CCN(S(C)(=O)=O)CC2)c2c(Cl)cccc2n1 [Compound 94]
< 1000,> 10000,> 10000,C[C@H](Nc1ncnc2[nH]cnc12)c1nc(N2CCCC2)c2c(Cl)cccc2n1 [Compound 92]
< 1000,> 10000,> 10000,CC(=O)N1CCC(Oc2nc(C(C)Nc3ncnc4[nH]cnc34)cc3ccccc23)CC1 (stereo not drawn) [Compound 52]
< 100,< 10000,> 10000,Cc1cccc2cc(C(C)Nc3ncnc4[nH]cnc34)nc(OCC3CCN(C(C)C)CC3)c12 (stereo not drawn) [Compound 51]
> 10000,–,–,Cc1cccc2cc(Cn3nc(-c4ccc5oc(N)nc5c4)c4c(N)ncnc43)nc(OC(C)C)c12 [Compound 29]
< 100,< 10000,< 10000,C[C@H](Nc1ncnc2[nH]cnc12)c1cc2cccc(Cl)c2c(CCN2CCC(F)(F)C2)n1 [Compound 91]
< 100,< 10000,< 1000,C[C@H](Nc1ncnc2[nH]cnc12)c1cc2cccc(Cl)c2c(CCN2CC(F)(F)C2)n1 [Compound 89]
< 100,> 10000,< 10000,CC(Nc1ncnc2[nH]cnc12)c1cc2cccc(Cl)c2c(CCN2CCN(S(C)(=O)=O)CC2)n1 (stereo not drawn) [Compound 80]
< 100,< 10000,< 10000,C[C@H](Nc1ncnc2[nH]cnc12)c1nc(OCCN2CCCC2)c2c(Cl)cccc2n1 [Compound 95]
< 100,< 10000,< 1000,C[C@H](Nc1ncnc2[nH]cnc12)c1cc2cccc(Cl)c2c(OCCN2CCCC2)n1 [Compound 72]
< 1000,> 10000,> 10000,CC(=O)N1CCN(CCc2nc(C(C)Nc3ncnc4[nH]cnc34)cc3cccc(Cl)c23)CC1 (stereo not drawn) [Compound 81]
< 100,< 10000,< 10000,C[C@H](Nc1ncnc2[nH]cnc12)c1cc2cccc(Cl)c2c(OCC2CCN(C)CC2)n1 [Compound 73]
< 10000,–,> 10000,Cc1cccc2cc(C(C)Nc3ncnc4[nH]cnc34)nc(NC3CCOCC3)c12 (stereo not drawn) [Compound 43]
> 10000,–,–,CC(=O)Nc1nc2ccc(-c3nn(Cc4cc5cccc(C)c5c(OC(C)C)n4)c4ncnc(N)c34)cc2s1 [Compound 28]
< 1000,–,–,Cc1cccc2cc(C(C)Nc3ncnc4[nH]cnc34)nc(Oc3ccccc3)c12 (stereo not drawn) [Compound 24]
